Source: PMC6138639, “The ZZ-type zinc finger of ZZZ3 modulates the ATAC complex-mediated histone acetylation and gene activation” (Nature Communications, 2018)
Substitutions are numbered along the chain they refer to.

Legend:
ZZZ3 ZZ domain D824A = target: T1, ZZZ3 ZZ domain D824A (Homo sapiens, UniProt Q8IYH5, D824A); assay: 1H,15N HSQC NMR titration of ZZZ3 ZZ D824A mutant with histone peptides; assay type: binding; conditions: measured by NMR (1H,15N HSQC titration); 0.1 mM 15N-labeled protein; 298 K
T1 construct: GST (N, cleaved yes); made in house; host or cells: E. coli BL21 (DE3) RIL
T1 sequence (Q8IYH5 818-877 D824A limits assumed): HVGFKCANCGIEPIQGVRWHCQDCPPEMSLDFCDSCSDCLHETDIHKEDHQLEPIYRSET
Protocol: (§1) In total, 0.1 mM uniformly ^15N-labeled WT or mutated ZZZ3-ZZ was used in NMR titrations. Binding was characterized by monitoring chemical shift changes in the proteins induced by histone peptides (synthesized by SynPeptide). Dissociation constant (Kd) was determined by applying PCA to the ^1H,^15N HSQC titration spectra in TREND[30]. Each binding isotherm was fitted using the following equation: pbound=∣∣PC1∣∣=L+P+Kd-L+P+Kd^2-4[P][L]/2[P] where [L] is the concentration of the histone peptide, [P] is the concentration of ZZ, pbound is the fraction of protein bound to a ligand, and PC1 is the normalized principal component, obtained by TREND, that indicates the change in the population of the bound state. The errors of the Kd value are the fitting uncertainties from nonlinear least-squares fits in Kaleidagraph.

[1] = target: T2, ZZZ3 ZZ domain (a.a. 800–903) (Homo sapiens, UniProt Q8IYH5); assay: Microscale thermophoresis (MST) displacement binding assay; conditions: displacement of 80 nM fluorescein-labeled H3 (1–12) from 5 μM ZZ by unlabeled peptide; 20 mM Tris–HCl pH 7.0, 150 mM NaCl, 3 mM DTT; H3 triplicates, H3K4ac duplicates
T2 construct: The samples containing 1.0 µM ZZZ3 ZZ (aa 800–903); GST (N, cleaved yes); made in house; host or cells: E. coli BL21 (DE3) RIL
T2 sequence (Q8IYH5 800-903): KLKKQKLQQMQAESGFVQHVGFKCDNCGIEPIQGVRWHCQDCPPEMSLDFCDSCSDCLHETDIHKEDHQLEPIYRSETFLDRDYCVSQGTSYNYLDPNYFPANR
Protocol: The MST experiments were performed using a Monolith NT.115 instrument (NanoTemper) as described previously. All experiments were performed with the purified ZZ domain (a.a. 800-903) in a buffer containing 20 mM Tris-HCl (pH 7.0), 150 mM NaCl, and 3 mM DTT. The final concentration of the C-terminal fluorescein-labeled histone H3 peptide (1-12, KE BIOCHEM) was kept at 80 nM. Dissociation constants for the interaction between ZZ with unlabeled peptides H3 (1-12) and H3K4ac (1-12) were measured using a displacement assay in which increasing amounts of unlabeled peptides were added into a preformed ZZ:H3-FAM complex prepared by supplementing 5 μM ZZ into each sample. The measurements were performed at 50% LED and 40% MST power with 3-s laser on time and 22 s off time. For all measurements, samples were loaded into premium capillaries and 1400-1700 counts were obtained for the fluorescence intensity. The Kd and IC50 values were determined with the MO.Affinity Analysis software (NanoTemper Technologies GmbH), using two independent MST measurements. […] The Kd value is the dissociation constant of labeled H3 peptide determined in the direct binding experiment described above. […]

[2] = target: T3, ZZZ3 ZZ domain (aa 800–903), WT (Homo sapiens, UniProt Q8IYH5); assay: Tryptophan fluorescence binding of histone peptides to WT ZZZ3 ZZ domain; conditions: for Kd: 1.0 µM ZZZ3 ZZ (aa 800–903), 25 °C, 20 mM Tris–HCl pH 7.2, 150 mM NaCl, 1 mM DTT, mean ± SD of three experiments
T3 construct: The samples containing 1.0 µM ZZZ3 ZZ (aa 800–903); GST (N, cleaved yes); made in house; host or cells: E. coli BL21 (DE3) RIL
T3 sequence (Q8IYH5 800-903): T2 sequence (Q8IYH5 800-903)
Protocol: Spectra were recorded at 25 °C on a Fluoromax-3 spectrofluorometer (HORIBA). The samples containing 1.0 µM ZZZ3 ZZ (aa 800–903) and progressively increasing concentrations of the histone peptide were excited at 295 nm. Experiments were performed in buffer containing 20 mM Tris–HCl (pH 7.2), 150 mM NaCl, and 1 mM DTT, with the exception of experiments shown in Supplementary Fig. 3b, which were performed in 100 mM NaCl buffer. Emission spectra were recorded over a range of wavelengths between 330 and 360 nm with a 0.5-nm step size and a 1-s integration time and averaged over three scans. The Kd values were determined using a nonlinear least-squares analysis and the equation: ΔI=ΔImaxL+P+Kd-L+P+Kd^2-4[P][L]/2[P] where [L] is the concentration of the histone peptide, [P] is the concentration of ZZZ3 ZZ domain, ΔI is the observed change of signal intensity, and ΔImax is the difference in signal intensity of the free and bound states of the ZZ domain. The Kd value was averaged over three separate experiments, with error calculated as the standard deviation between the runs.

ZZZ3 ZZ domain D848A = target: T4, ZZZ3 ZZ domain D848A (Homo sapiens, UniProt Q8IYH5, D848A); assay: 1H,15N HSQC NMR titration of ZZZ3 ZZ D848A mutant with histone peptides; assay type: binding; conditions: measured by NMR (1H,15N HSQC titration); 0.1 mM 15N-labeled protein; 298 K
T4 construct: GST (N, cleaved yes); made in house; host or cells: E. coli BL21 (DE3) RIL
T4 sequence (Q8IYH5 818-877 D848A limits assumed): T1 sequence (Q8IYH5 818-877 D824A limits assumed) with A7D, D31A
Protocol: as §1

ZZZ3 ZZ domain = target: T5, ZZZ3 ZZ domain (Homo sapiens, UniProt Q8IYH5); assay: Binding of non-H3-like peptide to ZZZ3 ZZ domain (Supplementary Fig. 2i); conditions: N-terminal Ala1 added to a non-H3-like peptide
T5 construct: made in house; host or cells: E. coli BL21 (DE3) RIL
T5 sequence (Q8IYH5 818-877 limits assumed): T1 sequence (Q8IYH5 818-877 D824A limits assumed) with A7D

ATAC complex = target: T6, ATAC complex (Homo sapiens, UniProt Q8IYH5); assay: In vitro HAT assay of purified ATAC complex with histone peptides or mononucleosomes; assay type: biochemical; conditions: 1 μg peptide, 0.1 mM acetyl-CoA, 37 °C, western blot
T6 construct: expressed in transfected cells; nuclear extract, M2-agarose, eluted with triple-FLAG peptide
Protocol: Nuclear extracts were prepared from stable cells using a standard protocol. Briefly, approximately 2 mg of nuclear extract was incubated with 25 µl of M2-agarose beads (Sigma) overnight at 4 °C. The beads were washed four times with high-salt wash buffer (10 mM HEPES, pH 7.9, 25% glycerol, 1.5 mM MgCl2, 300 mM KCl, and 0.1% Triton X-100), followed by two washes with low-salt wash buffer (10 mM HEPES, pH 7.9, 25% glycerol, 1.5 mM MgCl2, 100 mM KCl, and 0.1% Triton X-100). Elution was achieved by two consecutive incubations of the beads with 0.5 mg/ml triple-FLAG peptide (Sigma) in 200 µl of low-salt wash buffer. All buffers contained phenylmethylsulfonyl fluoride and protease inhibitor cocktail (Roche).
Purified complexes were incubated for indicated times at 37 °C with peptides (1 μg) or mononucleosomes (10 μg) and 0.1 mM acetyl-CoA in HAT reaction buffer (50 mM Tris, pH 8.0, 0.1 mM EDTA, 10% glycerol, 1 mM PMSF, and 1 mM DTT) in a total volume of 50 μL. Reactions were quenched by flash-freezing in liquid nitrogen and then analyzed by SDS-PAGE and western blot. Uncropped western blots are shown in Supplementary Figure 11.

Kd, ZZZ3 ZZ domain D824A (ZZZ3 ZZ domain D824A)	Kd [1]	Kd [2]	HAT activity of the ATAC complex on the peptide substrate (ATAC complex)	Compound	further results
No binding	5.5 µM	8.2 µM	–	CC(=O)NCCCC[C@H](NC(=O)[C@@H](NC(=O)[C@H](CCCNC(=N)N)NC(=O)[C@H](C)N)[C@@H](C)O)C(=O)N[C@@H](CCC(N)=O)C(=O)N[C@H](C(=O)N[C@@H](C)C(=O)N[C@@H](CCCNC(=N)N)C(=O)N[C@@H](CCCCN)C(=O)N[C@@H](CO)C(=O)N[C@H](C(=O)NCC(=O)O)[C@@H](C)O)[C@@H](C)O [H3K4ac]	Fold enhancement of ZZ association over the unmodified H3 peptide ([2]; Kd 8.2 μM versus 29 μM): ~ 3 fold
–	–	–	–	C[C@H](N)C(=O)N[C@@H](CCCNC(=N)N)C(=O)N[C@H](C(=O)N[C@@H](CCCC[N+](C)(C)C)C(=O)N[C@@H](CCC(N)=O)C(=O)N[C@H](C(=O)N[C@@H](C)C(=O)N[C@@H](CCCNC(=N)N)C(=O)N[C@@H](CCCCN)C(=O)N[C@@H](CO)C(=O)N[C@H](C(=O)NCC(=O)O)[C@@H](C)O)[C@@H](C)O)[C@@H](C)O [H3K4me3]	Kd ([2]; SD): 22 ± 6 µM
No binding	18 µM	29 µM	–	C[C@H](N)C(=O)N[C@@H](CCCNC(=N)N)C(=O)N[C@H](C(=O)N[C@@H](CCCCN)C(=O)N[C@@H](CCC(N)=O)C(=O)N[C@H](C(=O)N[C@@H](C)C(=O)N[C@@H](CCCNC(=N)N)C(=O)N[C@@H](CCCCN)C(=O)N[C@@H](CO)C(=O)N[C@H](C(=O)NCC(=O)O)[C@@H](C)O)[C@@H](C)O)[C@@H](C)O [H3]	Kd, ZZZ3 ZZ domain D848A (ZZZ3 ZZ domain D848A): No binding
–	–	–	–	AGSGSG [non-H3-like peptide with an added N-terminal Ala1]	Binding to the ZZZ3 ZZ domain (ZZZ3 ZZ domain): insufficient to bind
–	–	–	abolishes the HAT activity	H3 (3–33): biotinylated histone H3 peptide lacking the first two amino acids, HAT substrate	–
–	–	–	better substrate	Lys4-acetylated H3 peptide: Lys4-acetylated H3 (1-22) peptide used as HAT substrate	–
